From US20100010098A1, “POLYMORPHS OF RASAGILINE HYDROCHLORIDE” (priority 2008, published 2010)
Structures can show the parent of a compound that is named as a salt. Where two headings read alike, the source gives them in different places.

Columns and labels:
[1] = after storage for 4 weeks at 55° C./90% relative humidity
[2] = solid state; suspension with a liquid; compared with Form I
Description: 9 mg of rasagiline HCl Form I was suspended in 0.15 ml 2-PrOH and stirred for 11 days at 70° C.
b) 50 mg of rasagiline HCl Form I was suspended in 0.23 ml 2-PrOH and stirred for 7 days at 5° C.
20 mg of Form II was added to a suspension of 1.49 g Form III in 6 ml 2-PrOH. After 4 days solid material was isolated by filtration, washed with diethyl ether and was dried overnight at 40° C. in vacuo.

| Chemical Purity (HPLC) ([1]; hydrochloride) [%] | Color Change ([1]; hydrochloride) | Water uptake ([1]; hydrochloride) | Chemical Purity (HPLC) [1] [%] | Color Change [1] | Water uptake [1] | Compound | relative stability of the polymorphic form [2] |
| --- | --- | --- | --- | --- | --- | --- | --- |
| 100 | No | No |  |  |  | C#CCN[C@@H]1CCc2ccccc21 [Form II rasagiline hydrochloride, rasagiline hydrochloride] | more stable in the solid state than the crystalline Form I |
|  |  |  | 97.1 | Yes, brown color | Yes | C#CCN[C@@H]1CCc2ccccc21 [rasagiline mesylate, reference compound] |  |
